In the supplement of paper PMC11061612:

Tests used:
Test in all cases: Bliss excess, mean over the matrix (fraction); higher = more synergy
NY (Osteosarcoma) = system: NY (Osteosarcoma)
In short: (§1)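 Bliss excess equals the observed combination effect minus the expected value EA + EB − EA·EB, where EA and EB are the effects of each agent alone. Combination Emax is the second-highest inhibition within the matrix. Inhibition was scaled from CellTiter-Glo 2.0 luminescence, with 0 set by vehicle wells and 1 by blank wells, after 72 hours of two-drug dosing of cells plated in 1536-well plates.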

ARH-77 (Non-Cancerous) = system: ARH-77 (Non-Cancerous)
In short: as §1

[1] = system: VCaP (Prostate Carcinoma)
In short: as §1

LN-405 (Glioblastoma) = system: LN-405 (Glioblastoma)
In short: as §1

8-MG-BA (Glioblastoma) = system: 8-MG-BA (Glioblastoma)
In short: as §1

[2] = system: HCC1954 (Breast Carcinoma)
In short: as §1

CAS-1 (Glioblastoma) = system: CAS-1 (Glioblastoma)
In short: as §1

NCI-H2591 (Mesothelioma) = system: NCI-H2591 (Mesothelioma)
In short: as §1

[3] = system: SISO (Cervical Carcinoma)
In short: as §1

GI-ME-N (Neuroblastoma) = system: GI-ME-N (Neuroblastoma)
In short: as §1

[4] = system: CCK-81 (Colorectal Carcinoma)
In short: as §1

[5] = system: NCI-H1666 (Lung Adenocarcinoma)
In short: as §1

[6] = system: BICR22 (Oral Cavity Carcinoma)
In short: as §1

[7] = system: TT (Thyroid Gland Carcinoma)
In short: as §1

[8] = system: COLO-824 (Breast Carcinoma)
In short: as §1

U-2-OS (Osteosarcoma) = system: U-2-OS (Osteosarcoma)
In short: as §1

A498 (Kidney Carcinoma) = system: A498 (Kidney Carcinoma)
In short: as §1

[9] = system: KARPAS-422 (B-Cell Non-Hodgkin's Lymphoma)
In short: as §1

[10] = system: TT2609-C02 (Thyroid Gland Carcinoma)
In short: as §1

[11] = system: SK-MES-1 (Squamous Cell Lung Carcinoma)
In short: as §1

SMILES | Bliss excess (NY (Osteosarcoma)) | Bliss excess (ARH-77 (Non-Cancerous)) | Bliss excess [1] | Bliss excess (LN-405 (Glioblastoma)) | Bliss excess (8-MG-BA (Glioblastoma)) | Bliss excess [2] | Bliss excess (CAS-1 (Glioblastoma)) | Bliss excess (NCI-H2591 (Mesothelioma)) | Bliss excess [3] | Bliss excess (GI-ME-N (Neuroblastoma)) | Bliss excess [4] | Bliss excess [5] | Bliss excess [6] | Bliss excess [7] | Bliss excess [8] | Bliss excess (U-2-OS (Osteosarcoma)) | Bliss excess (A498 (Kidney Carcinoma)) | Bliss excess [9] | Bliss excess [10] | Bliss excess [11]
NC1(C(=O)N[C@@H](CCO)c2ccc(Cl)cc2)CCN(c2ncnc3[nH]ccc23)CC1 [Capivasertib] + CCN(CCO)CCCOc1ccc2c(Nc3cc(CC(=O)Nc4cccc(F)c4)[nH]n3)ncnc2c1 [AZD2811] (first compound max 10 µM, 7x7, partner max 1 µM) | -0.0531 | -0.0156 | 0.0328 | -0.0767 | 0.0289 | 0.0073 | -0.0688 | -0.0025 | 0.0229 | -0.0557 | 0.0065 | -0.0482 | -0.0012 | 0.002 | -0.0183 | -0.001 | -0.0548 | -0.0291 | -0.0075 | 0.0121
COc1nnc2ccc(N3CCC(c4ccc(OCCN5CCN(C)C(=O)[C@H]5C)cc4)CC3)nn12 [AZD5153] + CC1(C)CCC(CN2CCN(c3ccc(C(=O)NS(=O)(=O)c4ccc(NCC5CCOCC5)c([N+](=O)[O-])c4)c(Oc4cnc5[nH]ccc5c4)c3)CC2)=C(c2ccc(Cl)cc2)C1 [Venetoclax] (first compound max 1 µM, 7x7, partner max 1 µM) | -0.0722 | -0.0033 | -0.0486 | -0.0861 | -0.0116 | -0.0391 | -0.0621 | -0.0688 | -0.0335 | -0.0955 | -0.054 | -0.0603 | -0.0613 | -0.0116 | -0.0176 | -0.0424 | -0.0895 | -0.032 | -0.106 | -0.0349
CN(CCO)CC[C@H](CSc1ccccc1)Nc1ccc(S(=O)(=O)NC(=O)c2ccc(N3CCC([C@@H](O)c4ccccc4-c4ccc(Cl)cc4)CC3)cc2)cc1S(=O)(=O)C(F)(F)F [AZD4320] + Cc1cc2ncnn2cc1Nc1ncc2c(n1)n(C1CCOCC1)c(=O)n2C [AZD7648] (first compound max 1 µM, 7x7, partner max 10 µM) | -0.018 | 0.0238 | -0.0185 | 0.0012 | -0.0188 | 0.028 | -0.048 | -0.0445 | -0.0328 | -0.0775 | -0.0091 | -0.0352 | -0.0054 | -0.0694 | 0.006 | -0.0294 | -0.0393 | -0.0071 | -0.0367 | -0.0632
NC1(C(=O)N[C@@H](CCO)c2ccc(Cl)cc2)CCN(c2ncnc3[nH]ccc23)CC1 [Capivasertib] + Cn1cnc2c(F)c(Nc3ccc(Br)cc3Cl)c(C(=O)NOCCO)cc21 [Selumetinib] (first compound max 10 µM, 7x7, partner max 10 µM) | -0.0161 | 0.0614 | -0.0249 | -0.0051 | 0.0362 | 0.0405 | -0.0798 | -0.0052 | 0.0089 | -0.0544 | 0.0753 | -0.0165 | 0.114 | -0.0098 | 0.0166 | 0.0009 | -0.0108 | 0.0608 | -0.0213 | 0.0571
Cc1c2c(nn1C)CSCc1cc(n(C)n1)CSc1cc(c3ccccc3c1)OCCCc1c(C(=O)O)n(C)c3c-2c(Cl)ccc13 [AZD5991] + CCN(CCO)CCCOc1ccc2c(Nc3cc(CC(=O)Nc4cccc(F)c4)[nH]n3)ncnc2c1 [AZD2811] (first compound max 1 µM, 7x7, partner max 1 µM) | 0.0542 | -0.0146 | 0.08 | 0.0122 | 0.114 | 0.105 | 0.061 | 0.0208 | 0.108 | 0.0116 | 0.0227 | -0.0133 | 0.0418 | -0.0735 | -0.0156 | 0.0091 | 0.0054 | 0.0918 | 0.0119 | 0.0098
CN(C)CCCOc1ccc(-c2ccc3ncc4c(c3c2)n(C2CCOCC2)c(=O)n4C)cn1 [AZD0156] + CCN(CCO)CCCOc1ccc2c(Nc3cc(CC(=O)Nc4cccc(F)c4)[nH]n3)ncnc2c1 [AZD2811] (first compound max 1 µM, 7x7, partner max 1 µM) | -0.0466 | 0.0216 | -0.0484 | -0.0356 | -0.0033 | -0.0137 | 0.0191 | -0.0204 | 0.0081 | -0.0488 | -0.0302 | -0.0661 | 0.0091 | -0.0871 | -0.0565 | -0.0148 | -0.0302 | 0.0004 | -0.0032 | -0.0458
Cc1cc2ncnn2cc1Nc1ncc2c(n1)n(C1CCOCC1)c(=O)n2C [AZD7648] + C=CCn1c(=O)c2cnc(Nc3ccc(N4CCN(C)CC4)cc3)nc2n1-c1cccc(C(C)(C)O)n1 [AZD1775] (first compound max 10 µM, partner max 1 µM) | -0.0547 | -0.0575 | -0.0497 | -0.0402 | -0.0114 | 0.0065 | 0.0219 | 0.0043 | -0.0005 | 0.0213 | 0.0285 | 0.0305 | -0.0323 | -0.0215 | -0.0448 | 0.0232 | 0.0207 | -0.187 | -0.0218 | 0.0167
Cc1cc2ncnn2cc1Nc1ncc2c(n1)n(C1CCOCC1)c(=O)n2C [AZD7648] + CN(C)CCCOc1ccc(-c2ccc3ncc4c(c3c2)n(C2CCOCC2)c(=O)n4C)cn1 [AZD0156] (first compound max 10 µM, 7x7, partner max 1 µM) | -0.0172 | -0.049 | 0.0154 | -0.0215 | 0.029 | 0.0111 | -0.0246 | -0.0089 | 0.0339 | 0.0015 | -0.0003 | -0.0072 | -0.0192 | -0.0269 | -0.0145 | 0.0103 | -0.0212 | -0.138 | -0.0188 | 0.0394
CN(CCO)CC[C@H](CSc1ccccc1)Nc1ccc(S(=O)(=O)NC(=O)c2ccc(N3CCC([C@@H](O)c4ccccc4-c4ccc(Cl)cc4)CC3)cc2)cc1S(=O)(=O)C(F)(F)F [AZD4320] + C[C@@H](Nc1cc(F)cc(F)c1)c1cc(C(=O)N(C)C)cc2c(=O)cc(N3CCOCC3)oc12 [AZD8186] (first compound max 1 µM, 7x7, partner max 3 µM) | -0.005 | 0.0067 | 0.0559 | -0.0504 | -0.0301 | 0.0622 | -0.0831 | 0.0135 | 0.0326 | 0.0272 | 0.0755 | 0.0153 | -0.0108 | -0.061 | 0.0422 | 0.007 | 0.0903 | 0.0234 | 0.0003 | 0.031
Cc1cc2ncnn2cc1Nc1ncc2c(n1)n(C1CCOCC1)c(=O)n2C [AZD7648] + C[C@@H]1COCCN1C2=NC(=NC(=C2)C3(CC3)[S@](=N)(=O)C)C4=C5C=CNC5=NC=C4 [AZD6738] (first compound max 10 µM, 7x7, partner max 10 µM) | -0.0052 | -0.0463 | 0.0437 | -0.0881 | 0.0602 | 0.0568 | 0.0024 | 0.04 | 0.0202 | 0.0346 | 0.0178 | 0.0034 | 0.0114 | 0.0666 | 0.0794 | 0.0173 | 0.0313 | -0.0856 | -0.0004 | -0.0084
COc1nnc2ccc(N3CCC(c4ccc(OCCN5CCN(C)C(=O)[C@H]5C)cc4)CC3)nn12 [AZD5153] + C=CCn1c(=O)c2cnc(Nc3ccc(N4CCN(C)CC4)cc3)nc2n1-c1cccc(C(C)(C)O)n1 [AZD1775] (first compound max 1 µM, partner max 1 µM) | 0.0119 | -0.066 | -0.0756 | -0.042 | -0.0571 | -0.0383 | -0.0825 | 0.0145 | -0.0346 | -0.0231 | -0.0558 | -0.0944 | -0.0972 | -0.0629 | -0.0551 | -0.0304 | 0.0142 | -0.108 | -0.0508 | 0.0183
CC(=O)c1c(C)c2cnc(Nc3ccc(N4CCNCC4)cn3)nc2n(C2CCCC2)c1=O [Palbociclib] + Cn1cnc2c(F)c(Nc3ccc(Br)cc3Cl)c(C(=O)NOCCO)cc21 [Selumetinib] (first compound max 10 µM, 7x7, partner max 10 µM) | -0.0227 | -0.0147 | -0.012 | -0.0566 | -0.0061 | -0.0152 | -0.018 | -0.0161 | -0.0488 | -0.0012 | 0.0832 | -0.0183 | 0.102 | 0.0418 | -0.0652 | -0.0134 | -0.0228 | 0.062 | -0.0666 | -0.0088
NC1(C(=O)N[C@@H](CCO)c2ccc(Cl)cc2)CCN(c2ncnc3[nH]ccc23)CC1 [Capivasertib] + C[C@@H]1COCCN1C2=NC(=NC(=C2)C3(CC3)[S@](=N)(=O)C)C4=C5C=CNC5=NC=C4 [AZD6738] (first compound max 10 µM, 7x7, partner max 10 µM) | -0.0287 | -0.0375 | -0.0179 | -0.0413 | -0.004 | 0.0105 | -0.0706 | 0.0021 | -0.0474 | -0.0269 | -0.139 | -0.0332 | -0.0608 | -0.0378 | -0.0655 | -0.0326 | 0.0375 | -0.0575 | -0.0158 | -0.058
CN(CCO)CC[C@H](CSc1ccccc1)Nc1ccc(S(=O)(=O)NC(=O)c2ccc(N3CCC([C@@H](O)c4ccccc4-c4ccc(Cl)cc4)CC3)cc2)cc1S(=O)(=O)C(F)(F)F [AZD4320] + C1CN(CCC1(C(=O)N[C@@H](CCO)C2=CC=C(C=C2)Cl)N)C3=NC=NC4=C3C=CN4 [Capivasertib] (first compound max 1 µM, 7x7, partner max 3 µM) | -0.0277 | 0.0277 | 0.0013 | -0.0454 | -0.0071 | 0.0377 | -0.078 | -0.0455 | -0.0332 | -0.0729 | -0.0258 | -0.0491 | 0.0051 | -0.0456 | -0.0103 | -0.0609 | -0.0049 | 0.0401 | -0.0582 | -0.0608
